The source of these data is US10562882B2, “Piperidine derivatives for use in the treatment or prevention of psychiatric and neurological conditions” (Takeda Pharmaceutical Company Limited, priority 2013, dated 2020).

The structures appear in SMILES notation. Bounds are passed on as bounds.

human PKR1 receptors, sequence (Q8TCW9 whole entry): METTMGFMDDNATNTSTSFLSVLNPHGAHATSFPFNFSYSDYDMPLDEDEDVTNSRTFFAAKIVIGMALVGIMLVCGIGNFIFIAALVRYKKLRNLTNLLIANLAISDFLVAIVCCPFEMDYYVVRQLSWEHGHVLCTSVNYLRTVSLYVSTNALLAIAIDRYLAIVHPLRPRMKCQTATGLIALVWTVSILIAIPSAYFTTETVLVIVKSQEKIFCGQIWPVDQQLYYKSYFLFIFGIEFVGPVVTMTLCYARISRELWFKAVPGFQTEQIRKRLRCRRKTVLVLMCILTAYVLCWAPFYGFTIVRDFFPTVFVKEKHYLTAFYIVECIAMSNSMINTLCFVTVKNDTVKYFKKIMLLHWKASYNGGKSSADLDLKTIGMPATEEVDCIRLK

The assay addresses human PKR1 receptors (Homo sapiens (Human), UniProt Q8TCW9). Put plainly: PKR1 antagonist intracellular calcium (FLIPR) assay, block of PK1-mediated calcium release. The assay is classed as cell-based. To be noted: RBL2H3 cells expressing human PKR1; PK1 at EC80; minimum of two independent assays. As for the experimental part: Prokineticin receptor 1 (PKR1) antagonists may be functionally assessed by measurement of change in intracellular calcium levels induced by Gq mediated increase in inositol triphosphate (IP3) levels. The ability of a compound to block the intracellular release of calcium mediated by PK1 in RBL2H3 cells expressing human PKR1 receptors is determined as a measure of the compound's antagonist activity in vitro.
Approximately 10,000 cells per assay well are seeded in normal culture medium in a 384 well plate (Corning). Twenty-four hours after seeding, the cells are loaded with a calcium sensitive fluorescent dye by replacing the culture medium with assay buffer (1× Hanks buffered saline, 25 mM HEPES, 0.1% w/v fatty acid free BSA (bovine serum albumin), pH 7.4) containing 1 mM probenecid and 1× Calcium 5 Reagent (Molecular Devices). Cells are incubated at 37° C. for 1 hour to allow for dye uptake.
To test for antagonist activity, test compounds at a final concentration range between 0.32 nM-10 μM (diluted in assay buffer) are added to duplicate assay wells and allowed to incubate for 10 minutes prior to stimulation with PK1. After incubation with test compounds the assay plate is placed in a FLIPR Tetra (Molecular Devices) and PK1 (diluted in assay buffer) is added at the determined EC80 concentration (final). Ligand-dependent changes in intracellular calcium levels are determined by measuring changes in fluorescence of the dye at […] following excitation at 485 nm. […] A minimum of two IC50 values determined from independent assays are generated for each compound.
(Calcium flux is commonly read through the fluorescence of an indicator in the cells.)
The term IC50 denotes the point on the concentration scale where inhibition reaches its midpoint. Regarding `CC(C)n1c(C2CCCN(C(=O)c3ccnc(N(C)C)c3)C2)nc2ccccc21` (single isomer, unassigned; enantiomer 2) [Example 3, N,N-Dimethyl-4-{3-[1-(propan-2-yl)-1H-1,3-benzodiazol-2-yl]piperidine-1-carbonyl}pyridin-2-amine (enantiomer 2)], the IC50 came out at 9.06 µM.

For the molecule `CNc1cc(C(=O)N2CCCC(c3cc4ccccc4n3C(C)C)C2)cnn1` (stereo not shown) [Example 14, N-Methyl-5-{3-[1-(propan-2-yl)-1H-indol-2-yl]piperidine-1-carbonyl}pyridazin-3-amine], the IC50 amounted to 0.54 µM.

On to `CCn1c(C2CCCN(C(=O)c3cn(C)nc3N)C2)c(C)c2ccccc21` (stereo not shown) [Example 25, 4-[3-(1-Ethyl-3-methyl-1H-indol-2-yl)piperidine-1-carbonyl]-1-methyl-1H-pyrazol-3-amine], for which the IC50 came to 7.86 µM.

`CC(C)n1c(C2CCCN(C(=O)c3ccnc(N(C)C)c3)C2)nc2ccccc21` (single isomer, unassigned; enantiomer 1) [Example 2, N,N-Dimethyl-4-{3-[1-(propan-2-yl)-1H-1,3-benzodiazol-2-yl]piperidine-1-carbonyl}pyridin-2-amine (enantiomer 1)]: the half-inhibitory concentration (IC50) was 0.33 µM.

Turning to `CNc1cc(C(=O)N2CCCC(c3cc4ccccc4n3C)C2)cnn1` (stereo not shown) [Example 9, N-Methyl-5-[3-(1-methyl-1H-indol-2-yl)piperidine-1-carbonyl]pyridazin-3-amine], the IC50 came to 1.08 µM.

Turning to `CC(C)n1c(C2CCCN(C(=O)c3cnnc(N(C)C)c3)C2)cc2ccccc21` (stereo not shown) [Example 13, N,N-Dimethyl-5-{3-[1-(propan-2-yl)-1H-indol-2-yl]piperidine-1-carbonyl}pyridazin-3-amine], the IC50 amounted to 0.76 µM.

Take `Cc1cc(Cl)cnc1C1CCCN(C(=O)c2cnnc(N(C)C)c2)C1` (stereo not shown) [Example 28, 5-[3-(5-Chloro-3-methylpyridin-2-yl)piperidine-1-carbonyl]-N,N-dimethylpyridazin-3-amine]: the half-inhibitory concentration (IC50) came out at 1.04 µM.

For `CNc1cc(C(=O)N2CCCC(F)(c3ncc(Cl)cc3C)C2)ccn1` (stereo not shown) [Example 35, 4-[3-(5-Chloro-3-methylpyridin-2-yl)-3-fluoropiperidine-1-carbonyl]-N-methylpyridin-2-amine], the IC50 is 0.29 µM.

Regarding `COC1(c2ncc(Cl)cc2C(F)(F)F)CCCN(C(=O)c2ccnc(N(C)C)c2)C1` (stereo not shown) [Example 33, 4-{3-[5-Chloro-3-(trifluoromethyl)pyridin-2-yl]-3-methoxypiperidine-1-carbonyl}-N,N-dimethylpyridin-2-amine], the IC50 is 0.51 µM.

For the molecule `CCn1c(C2CCCN(C(=O)c3ccnc(N(C)C)c3)C2)cc2ccccc21` (stereo not shown) [Example 10, 4-[3-(1-Ethyl-1H-indol-2-yl)piperidine-1-carbonyl]-N,N-dimethylpyridin-2-amine], the IC50 worked out at 0.39 µM.

With `CN(C)c1cc(C(=O)N2CCCC(c3cc4ccccc4n3C)C2)ccn1` (stereo not shown) [Example 8, N,N-Dimethyl-4-[3-(1-methyl-1H-indol-2-yl)piperidine-1-carbonyl]pyridin-2-amine], the IC50 worked out at 1.07 µM.

For the molecule `CCn1c(C2CCCN(C(=O)c3cnnc(N(C)C)c3)C2)cc2ccccc21` (stereo not shown) [Example 11, 5-[3-(1-Ethyl-1H-indol-2-yl)piperidine-1-carbonyl]-N,N-dimethylpyridazin-3-amine], the concentration for half-maximal inhibition (IC50) was 0.94 µM.

`CCn1c(C2CCCN(C(=O)c3cnnc(N(C)C)c3)C2)cc2cc(Cl)ccc21` (stereo not shown) [Example 22, 5-[3-(5-Chloro-1-ethyl-1H-indol-2-yl)piperidine-1-carbonyl]-N,N-dimethylpyridazin-3-amine]: the IC50 was determined as 1.73 µM.

As to `CCn1cc(C(=O)N2CCCC(OC)(c3ncc(Cl)cc3C(F)(F)F)C2)cn1` (stereo not shown) [Example 32, 5-Chloro-2-[1-(1-ethyl-1H-pyrazole-4-carbonyl)-3-methoxypiperidin-3-yl]-3-(trifluoromethyl)pyridine], the half-maximal inhibitory concentration (IC50) was 1.88 µM.

For the molecule `COC1(c2ncc(Cl)cc2C(F)(F)F)CCCN(C(=O)c2cnnc(N(C)C)c2)C1` (stereo not shown) [Example 31, 5-{3-[5-Chloro-3-(trifluoromethyl)pyridin-2-yl]-3-methoxypiperidine-1-carbonyl}-N,N-dimethylpyridazin-3-amine], the IC50 came to 1.62 µM.

As for `CCn1c(C2CCCN(C(=O)c3cn(C)nc3N)C2)cc2cc(Cl)ccc21` (stereo not shown) [Example 27, 4-[3-(5-Chloro-1-ethyl-1H-indol-2-yl)piperidine-1-carbonyl]-1-methyl-1H-pyrazol-3-amine], the half-maximal inhibitory concentration (IC50) worked out at 0.91 µM.

As to `CC(C)n1c(C2CCCN(C(=O)c3cnnc(Cl)c3)C2)nc2ccccc21` (stereo not shown) [Example 5, 2-[1-(6-Chloropyridazine-4-carbonyl)piperidin-3-yl]-1-(propan-2-yl)-1H-1,3-benzodiazole], the IC50 was determined as 7.46 µM.

Take `CNc1cc(C(=O)N2CCCC(OC)(c3ncc(Cl)cc3C)C2)ccn1` (stereo not shown) [Example 34, 4-[3-(5-Chloro-3-methylpyridin-2-yl)-3-methoxypiperidine-1-carbonyl]-N-methylpyridin-2-amine]: the IC50 worked out at 0.47 µM.

Consider `CNc1cc(C(=O)N2CCCC(c3nc4ccccc4n3C(C)C)C2)cnn1` (stereo not shown) [Example 6, N-Methyl-5-{3-[1-(propan-2-yl)-1H-1,3-benzodiazol-2-yl]piperidine-1-carbonyl}pyridazin-3-amine], for which the IC50 turned out to be 1.74 µM.

Consider `CC(C)n1c(C2CCCN(C(=O)c3cn(C)nc3N)C2)cc2ccccc21` (stereo not shown) [Example 16, 1-Methyl-4-{3-[1-(propan-2-yl)-1H-indol-2-yl]piperidine-carbonyl}-1H-pyrazol-3-amine], for which the IC50 came out at 1.44 µM.

For `CCn1cc(C(=O)N2CCCC(c3nc4ccccc4n3C(C)C)C2)cn1` (stereo not shown) [Example 7, 2-[1-(1-Ethyl-1H-pyrazole-4-carbonyl)piperidin-3-yl]-1-(propan-2-yl)-1H-1,3-benzodiazole], the IC50 was 1.82 µM.

Consider `CNc1cc(C(=O)N2CCCC(F)(c3ncc(Cl)cc3C)C2)cnn1` (stereo not shown) [Example 38, 5-[3-(5-Chloro-3-methylpyridin-2-yl)-3-fluoropiperidine-1-carbonyl]-N-methylpyridazin-3-amine], for which the IC50 stood at 1.25 µM.

For `Cc1cc(Cl)cnc1C1(F)CCCN(C(=O)c2cn(C)nc2N)C1` (stereo not shown) [Example 43, 4-[3-(5-Chloro-3-methylpyridin-2-yl)-3-fluoropiperidine-1-carbonyl]-1-methyl-1H-pyrazol-3-amine], the IC50 was > 5 µM.

For the molecule `CCn1cc(C(=O)N2CCCC(c3cc4cc(C)ccc4n3CC)C2)cn1` (stereo not shown) [Example 17, 1-Ethyl-2-{1-[(1-ethyl-1H-pyrazol-4-yl)carbonyl]piperidin-3-yl}-5-methyl-1H-indole], the half-inhibitory concentration (IC50) amounted to 2.59 µM.

Take `CCn1c(C2CCCN(C(=O)c3cnnc(NC)c3)C2)cc2ccccc21` (stereo not shown) [Example 12, 5-[3-(1-Ethyl-1H-indol-2-yl)piperidine-1-carbonyl]-N-methylpyridazin-3-amine]: the IC50 was found to be 0.48 µM.

In the case of `CCn1cc(C(=O)N2CCCC(F)(c3ncc(Cl)cc3C)C2)cn1` (stereo not shown) [Example 41, 5-Chloro-2-[1-(1-ethyl-1H-pyrazole-4-carbonyl)-3-fluoropiperidin-3-yl]-3-methylpyridine], the IC50 was 2.39 µM.

For `CNc1cc(C(=O)N2CCCC(c3[nH]c4ccccc4c3C)C2)cnn1` (stereo not shown) [Example 23, N-Methyl-5-[3-(3-methyl-1H-indol-2-yl)piperidine-1-carbonyl]pyridazin-3-amine], the IC50 was determined as 7.41 µM.

As for `CCn1c(C2CCCN(C(=O)c3cn(C)nc3N)C2)cc2cc(C)ccc21` (stereo not shown) [Example 26, 4-[3-(1-Ethyl-5-methyl-1H-indol-2-yl)piperidine-1-carbonyl]-1-methyl-1H-pyrazol-3-amine], the IC50 came out at 3.12 µM.
